Source: US12516049B2, “Sulfonylurea ring substituted monocyclic β-lactam antibiotics” (priority 2019, dated 2026)
≈ marks a conversion by molar mass, not a printed value. Like-named read-outs stand apart in the source and are kept apart here.

Assays:
Format in all cases: cell-based
[1] = tested on: Enterobacter cloacae ATCC BAA-1143 (AmpC); test: MIC, micro-liquid dilution (CLSI); conditions: ATCCBAA1143, E. cloacae ATCC BAA-1143, Class C (AmpC), 20-24 h, 37° C.
Protocol: (§1) Three strains of Klebsiella pneumonia, ATCC BAA-205 (TEM-1/SHV-1/SHV-12), ATCC BAA-1705 (KPC-2), ATCC BAA-2470 (NDM-1), Enterobacter cloacae ATCC BAA-1143 (AmpC), two strains of Escherichia coli ATCC BAA-2523 (OXA-48), ATCC 25922 were used to determine the minimum inhibitory concentration (MIC) of each of the compounds by micro-liquid dilution method according to the Institute of Clinical and Laboratory Standard (CLSI) requirements. […]. The plate was placed upside down at 37° C. and the MIC value was read after 20-24 h of incubation, and the lowest drug concentration that inhibited the growth of bacteria was set as MIC. Colony-Forming Units (CFU) refer to the total number of bacterial colonies per unit volume.

[2] = tested on: Escherichia coli ATCC BAA-2523 (OXA-48); test: MIC, micro-liquid dilution (CLSI); conditions: ATCCBAA2523, E. coli ATCC BAA-2523, Class D (OXA-48), 20-24 h, 37° C., read-out: MIC
Protocol: as §1

[3] = tested on: Klebsiella pneumonia ATCC BAA-1705 (KPC-2); test: MIC, micro-liquid dilution (CLSI); conditions: Klebsiella pneumoniae, ATCCBAA1705; K. pneumonia ATCC BAA-1705, Class A (KPC-2); 20-24 h, 37° C.
Protocol: as §1

[4] = tested on: Escherichia coli ATCC 25922; test: MIC, micro-liquid dilution (CLSI); conditions: ATCC25922, E. coli ATCC 25922, 20-24 h, 37° C.
Protocol: as §1

[5] = tested on: Klebsiella pneumonia ATCC BAA-205 (TEM-1/SHV-1/SHV-12); test: MIC, micro-liquid dilution (CLSI); conditions: Klebsiella pneumoniae, ATCCBAA205; K. pneumonia ATCC BAA-205, Class A (TEM-1/SHV-1/SHV-12); 20-24 h, 37° C.
Protocol: as §1

[6] = tested on: Klebsiella pneumonia ATCC BAA-2470 (NDM-1); test: MIC, micro-liquid dilution (CLSI); conditions: Klebsiella pneumoniae, ATCCBAA2470; K. pneumonia ATCC BAA-2470, Class B (NDM-1); 20-24 h, 37° C.
Protocol: as §1

E.coli CRE23 = test: MIC, two-fold agar dilution, clinical isolate; conditions: Escherichia coli
Protocol: (§2) The minimum inhibitory concentration (MIC) of the compound and combination with β-lactamase (MBLs) inhibitors against clinically isolated carbapenem-resistant enterobacteriaceae was determined by the two-fold agar dilution method to determine the activity of the compound to be tested against strains producing MBLs. Antibiotics and enzyme inhibitors were weighed separately and dissolved in sterile ultrapure water or dimethyl sulfoxide to prepare mother liquor, MHA medium was prepared, pH was adjusted to 7.2-7.4, and it was sterilized at 121° C. for 15 minutes and placed in a 55° C. water bath for heat preservation. The mother liquor was diluted to the concentration to be tested by double dilution method, an inoculum liquid was prepared by direct bacterial suspension method, 1 mL of the prepared bacteria solution was withdrawn and putted into the inoculation tube, and a positioning needle and an inoculation needle were installed. A bacterial multi-point inoculator was started for inoculation. After the bacterial solution was absorbed by the agar, the plate was placed upside down in an incubator at 37° C. for 16-20 hours, and the results were observed. The average of three tests was taken.

K.p CRE16 = test: MIC, two-fold agar dilution, clinical isolate; conditions: single drug, average of three tests
Protocol: as §2

K.p 090339 = test: MIC, two-fold agar dilution, clinical isolate; conditions: K.p 090339; single drug; average of three tests; read-out: MIC
Protocol: as §2

E.coli BAA-2452 = test: MIC, two-fold agar dilution, clinical isolate; conditions: Escherichia coli, BAA2452; E.coli BAA-2452; single drug; average of three tests; read-out: MIC
Protocol: as §2

E.coli C1569 = test: MIC, two-fold agar dilution, clinical isolate; conditions: Escherichia coli, single drug, average of three tests
Protocol: as §2

K.p BAA-2470 = test: MIC, two-fold agar dilution, clinical isolate
Protocol: as §2

E.coli CRE28 = test: MIC, two-fold agar dilution, clinical isolate; conditions: Escherichia coli
Protocol: as §2

K.p 13249 = test: MIC, two-fold agar dilution, clinical isolate
Protocol: as §2

K.p CRE11 = test: MIC, two-fold agar dilution, clinical isolate
Protocol: as §2

K.p 115004 = test: MIC, two-fold agar dilution, clinical isolate; conditions: K.p 115004; single drug; average of three tests; read-out: MIC
Protocol: as §2

E.coli 020031 = test: MIC, two-fold agar dilution, clinical isolate; conditions: Escherichia coli, single drug, average of three tests
Protocol: as §2

K.p HX37 = test: MIC, two-fold agar dilution, clinical isolate
Protocol: as §2

E.coli 020033 = test: MIC, two-fold agar dilution, clinical isolate; conditions: Escherichia coli, single drug, average of three tests
Protocol: as §2

K.p HX77 = test: MIC, two-fold agar dilution, clinical isolate; conditions: single drug, average of three tests
Protocol: as §2

E.coli 115103 = test: MIC, two-fold agar dilution, clinical isolate; conditions: Escherichia coli
Protocol: as §2

K.p CRE12 = test: MIC, two-fold agar dilution, clinical isolate; conditions: single drug, average of three tests
Protocol: as §2

K.p C904 = test: MIC, two-fold agar dilution, clinical isolate
Protocol: as §2

E.coli 020028 = test: MIC, two-fold agar dilution, clinical isolate; conditions: Escherichia coli, single drug, average of three tests
Protocol: as §2

K.p 11544 = test: MIC, two-fold agar dilution, clinical isolate
Protocol: as §2

E.coli CRE18 = test: MIC, two-fold agar dilution, clinical isolate; conditions: Escherichia coli
Protocol: as §2

E.coli CRE21 = test: MIC, two-fold agar dilution, clinical isolate; conditions: Escherichia coli
Protocol: as §2

[7] = tested on: Morganella morganii C1274; test: MIC, two-fold agar dilution, clinical isolate; conditions: Morganella morganii C1274; single drug; average of three tests; read-out: MIC
Protocol: as §2

K.p 6777 = test: MIC, two-fold agar dilution, clinical isolate
Protocol: as §2

[8] = tested on: clinically isolated carbapenem-resistant enterobacteriaceae; conditions: single drug; panel of 26 strains of Table 2
Protocol: as §2, with “Antibiotics and enzyme inhibitors were weighed separately and dissolved in sterile ultrapure water or dimethyl sulfoxide to prepare mother liquor, MHA medium was prepared, pH was adjusted to 7.2-7.4, and it was sterilized at 121° C. for 15 minutes and placed in a 55° C. water bath for heat preservation.” left out

K.p HX30 = test: MIC, two-fold agar dilution, clinical isolate
Protocol: as §2, with “Antibiotics and enzyme inhibitors were weighed separately and dissolved in sterile ultrapure water or dimethyl sulfoxide to prepare mother liquor, MHA medium was prepared, pH was adjusted to 7.2-7.4, and it was sterilized at 121° C. for 15 minutes and placed in a 55° C. water bath for heat preservation.” left out

E.coli 115105 = test: MIC, two-fold agar dilution, clinical isolate; conditions: Escherichia coli, single drug, average of three tests
Protocol: as §2, with “Antibiotics and enzyme inhibitors were weighed separately and dissolved in sterile ultrapure water or dimethyl sulfoxide to prepare mother liquor, MHA medium was prepared, pH was adjusted to 7.2-7.4, and it was sterilized at 121° C. for 15 minutes and placed in a 55° C. water bath for heat preservation.” left out

E.coli 115101 = test: MIC, two-fold agar dilution, clinical isolate; conditions: Escherichia coli, 115101
Protocol: as §2, with “Antibiotics and enzyme inhibitors were weighed separately and dissolved in sterile ultrapure water or dimethyl sulfoxide to prepare mother liquor, MHA medium was prepared, pH was adjusted to 7.2-7.4, and it was sterilized at 121° C. for 15 minutes and placed in a 55° C. water bath for heat preservation.” left out

Row | Compound | MIC [1] [µg/mL] | MIC [2] [µg/mL] | MIC [3] [µg/mL] | MIC [4] [µg/mL] | MIC [5] [µg/mL] | MIC [6] [µg/mL] | MIC (K.p CRE16) [µg/mL] | MIC (K.p 090339) [µg/mL] | MIC (E.coli BAA-2452) [µg/mL] | MIC (E.coli C1569) [µg/mL] | MIC (K.p 115004) [µg/mL] | MIC (E.coli 020031) [µg/mL] | MIC (E.coli 020033) [µg/mL] | MIC (K.p HX77) [µg/mL] | MIC (K.p CRE12) [µg/mL] | MIC (E.coli 020028) [µg/mL] | MIC [7] [µg/mL] | also measured
1 | C[C@@H](O)[C@H]1C(=O)N2C(C(=O)O)=C(S[C@@H]3CN[C@H](C(=O)N(C)C)C3)[C@H](C)[C@H]12 [Meropenem] | – | – | – | – | – | – | 8 | 16 | 16 | 16 | 16 | 32 | 32 | 16 | 16 | 16 | 2 | MIC (E.coli CRE23; E.coli CRE23, single drug, average of three tests, read-out: MIC): 32 µg/mL; MIC (K.p BAA-2470; K.p BAA-2470, single drug, average of three tests, read-out: MIC): 32 µg/mL; MIC (E.coli CRE28; E.coli CRE28, single drug, average of three tests, read-out: MIC): 32 µg/mL; MIC (K.p 13249; K.p 13249, single drug, average of three tests, read-out: MIC): 32 µg/mL; MIC (K.p CRE11; K.p CRE11, single drug, average of three tests, read-out: MIC): 32 µg/mL; MIC (K.p HX37; K.p HX37, single drug, average of three tests, read-out: MIC): 32 µg/mL; MIC (E.coli 115103; E.coli 115103, single drug, average of three tests, read-out: MIC): 16 µg/mL; MIC (K.p C904; K.p C904, single drug, average of three tests, read-out: MIC): 16 µg/mL; MIC (K.p 11544; K.p 11544, single drug, average of three tests, read-out: MIC): 16 µg/mL; MIC (E.coli CRE18; E.coli CRE18, single drug, average of three tests, read-out: MIC): 32 µg/mL; MIC (E.coli CRE21; E.coli CRE21, single drug, average of three tests, read-out: MIC): 64 µg/mL; MIC (K.p 6777; K.p 6777, single drug, average of three tests, read-out: MIC): 8 µg/mL; MIC50 [8]: 16 µg/mL
2 | Nc1nc(/C(=N/OC2(C(=O)O)CC2)C(=O)N[C@@H]2C(=O)N(S(=O)(=O)O)[C@@H]2CN2CCCNS2(=O)=O)cs1 [Compound 2] | 2 (≈ 3.52 µM) | 1 (≈ 1.76 µM) | 2 (≈ 3.52 µM) | 4 (≈ 7.05 µM) | 1 (≈ 1.76 µM) | 1 (≈ 1.76 µM) | – | – | – | – | – | – | – | – | – | – | – | –
3 | C[C@H]1[C@H](NC(=O)/C(=N\OC(C)(C)C(=O)O)c2csc(N)n2)C(=O)N1S(=O)(=O)O [Aztreonam] | – | – | – | – | – | – | 64 | 64 | 16 | 1 | 64 | 4 | 32 | 16 | 4 | 16 | 4 | MIC (K.p HX30): > 128 µg/mL; MIC (E.coli 115105): 16 µg/mL; MIC (E.coli 115101): > 128 µg/mL; MIC (E.coli CRE23; CRE23): > 128 µg/mL; MIC (K.p BAA-2470): > 128 µg/mL; MIC (E.coli CRE28; CRE28): > 128 µg/mL; MIC (K.p 13249): > 128 µg/mL; MIC (K.p CRE11): 128 µg/mL; MIC (K.p HX37): > 128 µg/mL; MIC (E.coli 115103; 115103): 128 µg/mL; MIC (K.p C904): > 128 µg/mL; MIC (K.p 11544): > 128 µg/mL; MIC (E.coli CRE18; CRE18): > 128 µg/mL; MIC (E.coli CRE21; CRE21): > 128 µg/mL; MIC (K.p 6777): 128 µg/mL

The next lines start with results.

Row | MIC [1] [µg/mL] | MIC [2] [µg/mL] | MIC [3] [µg/mL] | MIC [4] [µg/mL] | MIC [5] [µg/mL] | MIC [6] [µg/mL] | Compound | MIC (K.p CRE16) [µg/mL] | MIC (K.p 090339) [µg/mL] | MIC (E.coli BAA-2452) [µg/mL] | MIC (E.coli C1569) [µg/mL] | MIC (K.p 115004) [µg/mL] | MIC (E.coli 020031) [µg/mL] | MIC (E.coli 020033) [µg/mL] | MIC (K.p HX77) [µg/mL] | MIC (K.p CRE12) [µg/mL] | MIC (E.coli 020028) [µg/mL] | MIC [7] [µg/mL] | also measured
4 | 1 (≈ 1.6 µM) | 0.25 (≈ 0.4 µM) | 1 (≈ 1.6 µM) | 0.5 (≈ 0.8 µM) | 1 (≈ 1.6 µM) | 0.5 (≈ 0.8 µM) | N=C(N)NC[C@@H]1CN(C[C@@H]2[C@H](NC(=O)/C(=N\OC3(C(=O)O)CC3)c3csc(N)n3)C(=O)N2S(=O)(=O)O)S(=O)(=O)N1 [Compound 5] | – | – | – | – | – | – | – | – | – | – | – | –
5 | 2 (≈ 3.2 µM) | 0.25 (≈ 0.4 µM) | 2 (≈ 3.2 µM) | 4 (≈ 6.39 µM) | 2 (≈ 3.2 µM) | 1 (≈ 1.6 µM) | CC(=O)OC[C@@H]1CN(C[C@@H]2[C@H](NC(=O)/C(=N\OC3(C(=O)O)CC3)c3csc(N)n3)C(=O)N2S(=O)(=O)O)S(=O)(=O)N1 [Compound 3] | – | – | – | – | – | – | – | – | – | – | – | –
6 | 1 (≈ 1.6 µM) | 0.25 (≈ 0.4 µM) | 8 (≈ 12.8 µM) | 4 (≈ 6.4 µM) | 2 (≈ 3.2 µM) | 1 (≈ 1.6 µM) | CC(=O)NC[C@@H]1CN(C[C@@H]2[C@H](NC(=O)/C(=N\OC3(C(=O)O)CC3)c3csc(N)n3)C(=O)N2S(=O)(=O)O)S(=O)(=O)N1 [Compound 6] | – | – | – | – | – | – | – | – | – | – | – | –
